From patent US10105357B2, “Indication of antibiotic drugs for preparation of cancer inhibition pharmaceutical composition” (LAUNX BIOMEDICAL CO., LTD., priority 2014, dated 2018)
Where two headings read alike, the source gives them in different places.

Experiments:
[1] = system: SAS (Tongue squamous cell carcinoma); test: Cell viability analysis, tongue cancer SAS; type: cell-based, human
[2] = system: HI650 (Lung Adenocarcinoma); test: Cell viability analysis, lung cancer HI650; type: cell-based, human
[3] = system: C-33A (Cervical carcinoma); test: Cell viability analysis, cervical cancer C-33A; type: cell-based, human
[4] = system: TSGH-8301 (Urinary Bladder Carcinoma); test: Cell viability analysis, bladder cancer TSGH-8301; type: cell-based, human
[5] = system: Hep3B (hepatocellular carcinoma); test: Cell viability analysis, hepatic cancer Hep3B; type: cell-based, human
[6] = system: PC3 (p53−) (Prostate Adenocarcinoma); test: Cell viability analysis, prostate cancer PC3; type: cell-based, human
[7] = system: A375 (Amelanotic Melanoma); test: Cell viability analysis, skin cancer A375; type: cell-based, human
BxPC-3 = test: Cell viability analysis, pancreatic cancer BxPC-3; type: cell-based, human
[8] = system: HCT116 (p53+) (Colorectal Carcinoma)
[9] = system: HeLa (Cervix Adenocarcinoma); test: Cell viability analysis, cervical cancer HeLa; type: cell-based, human
AsPC-1 = test: Cell viability analysis, pancreatic cancer AsPC-1; type: cell-based, human
[10] = system: A549 (Lung Adenocarcinoma); test: Cell viability analysis, lung cancer A549; type: cell-based, human
[11] = system: MDA-MB-231 (Mammary Gland, Adenocarcinoma); test: Cell viability analysis, breast cancer MDA-MB-231; type: cell-based, human
T24 = test: Cell viability analysis, bladder cancer T24; type: cell-based, human
[12] = system: BCC (basal cell carcinoma); test: Cell viability analysis, skin cancer BCC; type: cell-based, human
[13] = system: 786-O (Renal adenocarcinoma); test: Cell viability analysis, renal cancer 786-O; type: cell-based, human
NIH: OVCAR-3 = test: Cell viability analysis, ovarian cancer NIH: OVCAR-3; type: cell-based, human
U-2OS = test: Cell viability analysis, osteosarcoma U-2OS; type: cell-based, human
[14] = system: AGS (Gastric Adenocarcinoma); test: Cell viability analysis, gastric cancer AGS; type: cell-based, human
TOV-21G = test: Cell viability analysis, ovarian cancer TOV-21G; type: cell-based, human
[15] = system: MCF7 (Mammary Gland, Adenocarcinoma); test: Cell viability analysis, breast cancer MCF7; type: cell-based, human
[16] = system: MKN-45 (Gastric Adenocarcinoma); test: Cell viability analysis, gastric cancer MKN-45; type: cell-based, human
[17] = system: HepG2 (Hepatocellular Carcinoma); test: Cell viability analysis, hepatic cancer HepG2; type: cell-based, human
[18] = system: LoVo (Colorectal Adenocarcinoma); test: Cell viability analysis, colon cancer LoVo; type: cell-based, human
[19] = NIH-OVCAR-3, repeated experiment

COC(=O)Nc1nc2cc(C(=O)c3ccc(F)cc3)ccc2[nH]1 [Flubendazole (Flutelmium)]
The results of antibiotic drug inhibiting cancer cell lines (cell viability analysis), SAS ([1]; SAS, repeated experiment): 45.16 | The results of antibiotic drug inhibiting cancer cell lines (cell viability analysis), H1650 ([2]; H1650, repeated experiment): 35.69 | The results of antibiotic drug inhibiting cancer cell lines (cell viability analysis), C-33A ([3]; C-33A, repeated experiment): 46.4 | The results of antibiotic drug inhibiting cancer cell lines (cell viability analysis), TSGH-8301 ([4]; TSGH-8301, repeated experiment): 45.64 | The results of antibiotic drug inhibiting cancer cell lines (cell viability analysis), Hep3B ([5]; Hep3B, repeated experiment): 56.93 | The results of antibiotic drug inhibiting cancer cell lines (cell viability analysis), PC-3 [6]: 32.11 | The results of antibiotic drug inhibiting cancer cell lines (cell viability analysis), A375 ([7]; A375, repeated experiment): 30.32 | The results of antibiotic drug inhibiting cancer cell lines (cell viability analysis), BxPC-3 (BxPC-3; BxPC-3, repeated experiment): 32.76 | The results of antibiotic drug inhibiting cancer cell lines (cell viability analysis), HCT116 [8]: 20.63 | The results of antibiotic drug inhibiting cancer cell lines (cell viability analysis), HeLa ([9]; HeLa, repeated experiment): 25.78 | The results of antibiotic drug inhibiting cancer cell lines (cell viability analysis), AsPC-1 (AsPC-1; AsPC-1, repeated experiment): 35.53 | The results of antibiotic drug inhibiting cancer cell lines (cell viability analysis), A549 ([10]; A549, repeated experiment): 22.71 | The results of antibiotic drug inhibiting cancer cell lines (cell viability analysis), MDA-MB231 ([11]; MDA-MB231, repeated experiment): 43.43 | The results of antibiotic drug inhibiting cancer cell lines (cell viability analysis), T24 (T24; T24, repeated experiment): 34.67 | The results of antibiotic drug inhibiting cancer cell lines (cell viability analysis), BCC ([12]; BCC, repeated experiment): 31.79 | The results of antibiotic drug inhibiting cancer cell lines (cell viability analysis), 786-O ([13]; 786-O, repeated experiment): 20.97 | The results of antibiotic drug inhibiting cancer cell lines (cell viability analysis), NIH-OVCAR-3 (NIH: OVCAR-3; [19]): 59.15 | The results of antibiotic drug inhibiting cancer cell lines (cell viability analysis), U2OS (U-2OS; U2OS, repeated experiment): 48.74 | The results of antibiotic drug inhibiting cancer cell lines (cell viability analysis), AGS ([14]; AGS, repeated experiment): 28.25 | The results of antibiotic drug inhibiting cancer cell lines (cell viability analysis), TOV-21G (TOV-21G; TOV-21G, repeated experiment): 24.84 | The results of antibiotic drug inhibiting cancer cell lines (cell viability analysis), MCF-7 ([15]; MCF-7, repeated experiment): 55.01 | The results of antibiotic drug inhibiting cancer cell lines (cell viability analysis), MKN-45 [16]: 63.06 | The results of antibiotic drug inhibiting cancer cell lines (cell viability analysis), HepG2 ([17]; HepG2, repeated experiment): 56.8 | The results of antibiotic drug inhibiting cancer cell lines (cell viability analysis), LoVo ([18]; LoVo, repeated experiment): 53.35

CC(=O)Oc1ccccc1C(=O)Nc1ncc([N+](=O)[O-])s1 [Nitazoxanide (Alinia, Annita)]
The results of antibiotic drug inhibiting cancer cell lines (cell viability analysis), SAS [1]: 78.89 | The results of antibiotic drug inhibiting cancer cell lines (cell viability analysis), H1650 [2]: 85.86 | The results of antibiotic drug inhibiting cancer cell lines (cell viability analysis), C-33A [3]: 103.9 | The results of antibiotic drug inhibiting cancer cell lines (cell viability analysis), TSGH-8301 [4]: 87.18 | The results of antibiotic drug inhibiting cancer cell lines (cell viability analysis), Hep3B [5]: 106.8 | The results of antibiotic drug inhibiting cancer cell lines (cell viability analysis), PC-3 [6]: 90.27 | The results of antibiotic drug inhibiting cancer cell lines (cell viability analysis), A375 [7]: 94.2 | The results of antibiotic drug inhibiting cancer cell lines (cell viability analysis), BxPC-3 (BxPC-3): 89.5 | viability [8]: 98.4% | The results of antibiotic drug inhibiting cancer cell lines (cell viability analysis), HeLa [9]: 84.93 | The results of antibiotic drug inhibiting cancer cell lines (cell viability analysis), AsPC-1 (AsPC-1): 84.09 | The results of antibiotic drug inhibiting cancer cell lines (cell viability analysis), A549 [10]: 95.57 | The results of antibiotic drug inhibiting cancer cell lines (cell viability analysis), MDA-MB231 [11]: 91.23 | The results of antibiotic drug inhibiting cancer cell lines (cell viability analysis), T24 (T24): 76.47 | The results of antibiotic drug inhibiting cancer cell lines (cell viability analysis), BCC [12]: 76 | The results of antibiotic drug inhibiting cancer cell lines (cell viability analysis), 786-O [13]: 44.2 | The results of antibiotic drug inhibiting cancer cell lines (cell viability analysis), NIH-OVCAR-3 (NIH: OVCAR-3): 104.5 | The results of antibiotic drug inhibiting cancer cell lines (cell viability analysis), U2OS (U-2OS): 83.33 | The results of antibiotic drug inhibiting cancer cell lines (cell viability analysis), AGS [14]: 99.04 | The results of antibiotic drug inhibiting cancer cell lines (cell viability analysis), TOV-21G (TOV-21G): 62.56 | The results of antibiotic drug inhibiting cancer cell lines (cell viability analysis), MCF-7 [15]: 79.28 | The results of antibiotic drug inhibiting cancer cell lines (cell viability analysis), MKN-45 [16]: 97.28 | The results of antibiotic drug inhibiting cancer cell lines (cell viability analysis), HepG2 [17]: 107.5 | The results of antibiotic drug inhibiting cancer cell lines (cell viability analysis), LoVo [18]: 94.76

CC[C@H](C)[C@H]1O[C@]2(CC[C@@H]1C)C[C@@H]1C[C@@H](C/C=C(\C)[C@@H](O[C@H]3C[C@H](OC)[C@@H](O[C@H]4C[C@H](OC)[C@@H](O)[C@H](C)O4)[C@H](C)O3)[C@@H](C)/C=C/C=C3\CO[C@@H]4[C@H](O)C(C)=C[C@@H](C(=O)O1)[C@]34O)O2 [Ivermectin]
The results of antibiotic drug inhibiting cancer cell lines (cell viability analysis), SAS ([1]; SAS, repeated experiment): 41.52 | The results of antibiotic drug inhibiting cancer cell lines (cell viability analysis), H1650 ([2]; H1650, repeated experiment): 50.2 | The results of antibiotic drug inhibiting cancer cell lines (cell viability analysis), C-33A ([3]; C-33A, repeated experiment): 85.05 | The results of antibiotic drug inhibiting cancer cell lines (cell viability analysis), TSGH-8301 ([4]; TSGH-8301, repeated experiment): 63.74 | The results of antibiotic drug inhibiting cancer cell lines (cell viability analysis), Hep3B ([5]; Hep3B, repeated experiment): 63.22 | The results of antibiotic drug inhibiting cancer cell lines (cell viability analysis), PC-3 ([6]; PC-3, repeated experiment): 27.87 | The results of antibiotic drug inhibiting cancer cell lines (cell viability analysis), A375 ([7]; A375, repeated experiment): 44.36 | The results of antibiotic drug inhibiting cancer cell lines (cell viability analysis), BxPC-3 (BxPC-3; BxPC-3, repeated experiment): 65.76 | viability [8]: 62.7% | The results of antibiotic drug inhibiting cancer cell lines (cell viability analysis), HeLa ([9]; HeLa, repeated experiment): 58.86 | The results of antibiotic drug inhibiting cancer cell lines (cell viability analysis), AsPC-1 (AsPC-1; AsPC-1, repeated experiment): 41.75 | The results of antibiotic drug inhibiting cancer cell lines (cell viability analysis), A549 ([10]; A549, repeated experiment): 33.35 | The results of antibiotic drug inhibiting cancer cell lines (cell viability analysis), MDA-MB231 ([11]; MDA-MB231, repeated experiment): 83.03 | The results of antibiotic drug inhibiting cancer cell lines (cell viability analysis), T24 (T24; T24, repeated experiment): 101.7 | The results of antibiotic drug inhibiting cancer cell lines (cell viability analysis), BCC ([12]; BCC, repeated experiment): 33.64 | The results of antibiotic drug inhibiting cancer cell lines (cell viability analysis), 786-O ([13]; 786-O, repeated experiment): 55.69 | The results of antibiotic drug inhibiting cancer cell lines (cell viability analysis), NIH-OVCAR-3 (NIH: OVCAR-3; [19]): 61.85 | The results of antibiotic drug inhibiting cancer cell lines (cell viability analysis), U2OS (U-2OS; U2OS, repeated experiment): 50.69 | The results of antibiotic drug inhibiting cancer cell lines (cell viability analysis), AGS ([14]; AGS, repeated experiment): 79.82 | The results of antibiotic drug inhibiting cancer cell lines (cell viability analysis), TOV-21G (TOV-21G; TOV-21G, repeated experiment): 42.41 | The results of antibiotic drug inhibiting cancer cell lines (cell viability analysis), MCF-7 ([15]; MCF-7, repeated experiment): 48.13 | The results of antibiotic drug inhibiting cancer cell lines (cell viability analysis), MKN-45 ([16]; MKN-45, repeated experiment): 102.1 | The results of antibiotic drug inhibiting cancer cell lines (cell viability analysis), HepG2 ([17]; HepG2, repeated experiment): 65.3 | The results of antibiotic drug inhibiting cancer cell lines (cell viability analysis), LoVo ([18]; LoVo, repeated experiment): 53.26

CS(=O)(=O)c1ccc([C@@H](O)[C@@H](CO)NC(=O)C(Cl)Cl)cc1 [Thiamphenicol (Thiophenicol)]
The results of antibiotic drug inhibiting cancer cell lines (cell viability analysis), SAS [1]: 54.04 | The results of antibiotic drug inhibiting cancer cell lines (cell viability analysis), H1650 [2]: 94.92 | The results of antibiotic drug inhibiting cancer cell lines (cell viability analysis), C-33A [3]: 140.2 | The results of antibiotic drug inhibiting cancer cell lines (cell viability analysis), TSGH-8301 [4]: 136.8 | The results of antibiotic drug inhibiting cancer cell lines (cell viability analysis), Hep3B [5]: 103.3 | The results of antibiotic drug inhibiting cancer cell lines (cell viability analysis), PC-3 [6]: 150.2 | The results of antibiotic drug inhibiting cancer cell lines (cell viability analysis), A375 [7]: 112 | The results of antibiotic drug inhibiting cancer cell lines (cell viability analysis), BxPC-3 (BxPC-3): 86.08 | viability [8]: 150% | The results of antibiotic drug inhibiting cancer cell lines (cell viability analysis), HeLa [9]: 90.82 | The results of antibiotic drug inhibiting cancer cell lines (cell viability analysis), AsPC-1 (AsPC-1): 102.5 | The results of antibiotic drug inhibiting cancer cell lines (cell viability analysis), A549 [10]: 97.41 | The results of antibiotic drug inhibiting cancer cell lines (cell viability analysis), MDA-MB231 [11]: 95.4 | The results of antibiotic drug inhibiting cancer cell lines (cell viability analysis), T24 (T24): 164 | The results of antibiotic drug inhibiting cancer cell lines (cell viability analysis), BCC [12]: 111.8 | The results of antibiotic drug inhibiting cancer cell lines (cell viability analysis), 786-O [13]: 93.48 | The results of antibiotic drug inhibiting cancer cell lines (cell viability analysis), NIH-OVCAR-3 (NIH: OVCAR-3): 115.7 | The results of antibiotic drug inhibiting cancer cell lines (cell viability analysis), U2OS (U-2OS): 51.12 | The results of antibiotic drug inhibiting cancer cell lines (cell viability analysis), AGS [14]: 140.3 | The results of antibiotic drug inhibiting cancer cell lines (cell viability analysis), TOV-21G (TOV-21G): 105.7 | The results of antibiotic drug inhibiting cancer cell lines (cell viability analysis), MCF-7 [15]: 89.24 | The results of antibiotic drug inhibiting cancer cell lines (cell viability analysis), MKN-45 [16]: 177 | The results of antibiotic drug inhibiting cancer cell lines (cell viability analysis), HepG2 [17]: 143.9 | The results of antibiotic drug inhibiting cancer cell lines (cell viability analysis), LoVo [18]: 96.08
